Results from PMC11062899, “De novo development of small cyclic peptides that are orally bioavailable” (Nature Chemical Biology, 2023).
Square brackets hold non-standard residues; d marks the D form. Peptide text beside a SMILES is read from it. NMeY = CN[C@@H](Cc1ccc(O)cc1)C(=O)O; NMeL = CN[C@@H](CC(C)C)C(=O)O; dNMeL = CN[C@H](CC(C)C)C(=O)O

Key:
in vivo = conditions: male, Wistar Han, rat
Procedure: Male Wistar Han rats (250–350 g) obtained at an age of 9–10 weeks from Charles River Laboratories were used for the studies and kept in housing groups of two or three. Experiments were performed at the age of 10–11 weeks. Intravenous (i.v.) administrations were carried out using tail vein injections. Peptides were dissolved in pure DMSO and diluted with 5% Cremophor EL in water (5% DMSO final) at a concentration of 0.5 mg ml^−1. I.v. administration was carried out at a dose of 1 mg kg^−1 body weight via the left lateral tail vein of rats (n = 3) using an Insyte-W 24 G × 0.75 in. (0.7 mm × 19 mm) temporary peripheral venous catheter (BD Biosciences, 381312). Before injecting the peptide solution, a correct placement of the catheter was confirmed by an apparent reflux of blood through the catheter. Orally (p.o.) administrated peptides were dissolved in DMSO and diluted with 10% Cremophor EL in water (5% DMSO final) at a concentration of 1 mg ml^−1 and administrated by oral gavage to rats (n = 3) at a dose of 10 mg kg^−1. Rats used for oral administration were fasted overnight for 14 h and provided access to food again 2 h after administration, whereas access to water was not restricted throughout the whole experimental procedure. Volumes of 100 μl of blood samples were collected via the right lateral tail vein at different timepoints after i.v. or p.o. administration into heparinized tubes (Sarstedt, 20.1282); the samples were stored on ice for up to 4 h; and plasma was obtained by centrifugation at 2,000g for 5 min at 4 °C. A volume of 40 μl of plasma was added to 120 μl of an acetonitrile:water (9:1) solution containing an internal standard (5 μg ml^−1). Samples were vortexed for 10 s and sonicated for 10 min, and precipitated plasma proteins were pelleted by centrifugation at 16,000g for 15 min at 4 °C. Volumes of 120 μl of supernatant were transferred to a new tube, and solvent was evaporated in a rotary vacuum concentrator (RVC 2–33 CDplus IR, Christ) for 2 h at 40 °C. Dried residues were dissolved in 20 μl of a water:acetonitrile (7:3) (v/v) solution, centrifuged at 14,000g for 5 min and analyzed by LC–MS. Peptides were quantified by extracting ion chromatograms corresponding to their respective mass, integrating the area under the peptide peak and calculating the concentrations by normalization to a calibration curve. Calibration curves were prepared by analyzing spiked samples of blood or plasma with known concentrations of peptide. The absolute oral bioavailability was calculated using equation (6).6 F=AUCp.o./AUCi.v.×Dosei.v./Dosep.o.×100 where AUCp.o. and AUCi.v. are calculated from a plasma concentration versus time curve using the linear trapezoidal rule, and Dosei.v. and Dosep.o. are the intravenously or orally administrated amount of peptide in mg kg^−1.

[1] = Metabolic stability in rat liver microsomes (RLMs); conditions: rat liver microsomes; for half-life at 10 μM / microsomal CLint at 10 μM: rat
porcine pancreatin = assay: Peptide stability in simulated intestinal fluid (SIF); assay type: in vitro ADME; design: remaining at 8 h: dose or concentration left out as unconfirmed; conditions: pig, simulated intestinal fluid (SIF) with porcine pancreatin; 8 h, 37 °C, pH 6.8; read-out: Proteolytic stability: SIF (8 h) % remaining
Method in brief: (§1)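 Peptide from a 1 mM DMSO stock was added to fluid pre-warmed at 37 °C. SGF was pH 1.2 NaCl with porcine pepsin (0.32 g per 100 ml), and SIF was pH 6.8 potassium phosphate with porcine pancreatin (1 g per 100 ml). Supernatant peptide was quantified by LC–MS, with residual expressed as T1/T0.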

porcine pepsin = biological target: T1, porcine pepsin (Sus scrofa, UniProt P00791); assay: Peptide stability in simulated gastric fluid (SGF); assay type: in vitro ADME; design: remaining at 8 h: dose or concentration left out as unconfirmed; conditions: pig, simulated gastric fluid (SGF) with porcine pepsin; 8 h, 37 °C, pH 1.2; read-out: Proteolytic stability: SGF (8 h) % remaining
T1 construct: 0.32 g of porcine pepsin (Sigma-Aldrich, P7125) was dissolved under gentle agitation; purchased Sigma-Aldrich P7125
T1 sequence (P00791 60-385): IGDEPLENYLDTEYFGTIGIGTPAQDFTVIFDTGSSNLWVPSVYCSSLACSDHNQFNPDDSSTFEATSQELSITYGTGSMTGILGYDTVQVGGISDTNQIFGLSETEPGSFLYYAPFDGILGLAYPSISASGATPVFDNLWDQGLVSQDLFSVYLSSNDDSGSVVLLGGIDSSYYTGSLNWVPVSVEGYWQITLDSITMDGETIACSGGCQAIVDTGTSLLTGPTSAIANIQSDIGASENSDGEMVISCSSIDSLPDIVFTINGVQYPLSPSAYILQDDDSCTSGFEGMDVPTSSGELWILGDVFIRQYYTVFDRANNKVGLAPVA
Method in brief: as §1

[2] = cited from earlier work
[3] = design: method as in PMID 19696042; conditions: cited from earlier work
[4] = pH 7.4, Metabolic stability: Half life T1/2 (min), RLMs, mean and SD, three measurements
[5] = pH 7.4, Metabolic stability: RLM CL (ul/min/mg), RLMs, mean and SD, three measurements

| bioavailability (in vivo) | half-life (in vivo; iv) | half-life at 10 μM [1, 4] | microsomal CLint at 10 μM [1, 5] | remaining at 8 h (porcine pancreatin) | remaining at 8 h (porcine pepsin) | Half Life ([1]; individual replicates R1-R3) | RLM CL ([1]; individual replicates R1-R3, incubation volume 400 ul, protein 0.5 mg/ml) | half-life at 10 μM ([1]; pH 7.4, Half Life Mean, mean of R1-R3) | half-life at 10 μM ([1]; pH 7.4, Half Life, individual replicates R1-R3) | microsomal CLint at 10 μM ([1]; pH 7.4, RLM CL Mean, mean of R1-R3) | microsomal CLint at 10 μM ([1]; pH 7.4, RLM CL, individual replicates R1-R3, incubation volume 400 ul, protein 0.5 mg/ml) | SMILES | metabolic clearance in humans [2] | oral availability [3] |
| --- | --- | --- | --- | --- | --- | --- | --- | --- | --- | --- | --- | --- | --- | --- |
| 27 ± 4% | 110 min | 193 ± 42 min | 7.6 ± 1.9 µL/min/mg | 98 ± 6% | 93 ± 12% |  |  |  |  |  |  | CC(C)C[C@@H]1NC(=O)[C@H](Cc2ccc(O)cc2)N(C)C(=O)[C@H]2CCCN2C(=O)[C@H](CC(C)C)NC(=O)[C@H](CC(C)C)N(C)C(=O)[C@@H](CC(C)C)N(C)C1=O [1NMe3, reference compound] (cyclo(L[dNMeL][NMeL]L[dP][NMeY])) |  |  |
|  |  | 13.4 ± 1.1 min | 104 ± 8 µL/min/mg |  |  | 12.36 min | 112.14 ul/min/mg protein | 13.4 min | 14.9 min | 104 µL/min/mg | 93 µL/min/mg | COc1ccc([C@@H]2Sc3ccccc3N(CCN(C)C)C(=O)[C@@H]2OC(C)=O)cc1 [Diltiazem, diltiazem, reference compound] | around 15 ml min^−1 kg^−1 |  |
|  |  |  |  |  |  |  |  |  |  |  |  | CCCCCCOC(=O)NC(=N)c1ccc(NCc2nc3cc(C(=O)N(CCC(=O)OCC)c4ccccn4)ccc3n2C)cc1 [dabigatran etexilate] |  | 6.5% |
